Several values for one entry are separate records, joined by “and”; a condition that tells them apart may be missing. Equal entries are not always repeated.
Columns and labels:
[1] = test system: Z-138 cells; assay: Z-138 cell proliferation, CTG reagent, 3-day treatment, single agents and combination (CompuSyn synergy analysis); format: cell-based; details: for % Inhibition in proliferation: 3 days
Protocol: Z-138 cells were treated with serial dilutions of Compound-44A (CDK7 inhibitor), serial dilutions of venetoclax individually and in combination for 3 days. The effect of 3-day compound treatment on cell proliferation was measured using CTG reagent. Percentage inhibition of cell proliferation in individual (Compound-44A, venetoclax) and combination treatments (Compound-44A+venetoclax) were analyzed using CompuSyn software to assess synergy.

[2] = test system: MCF-7 cells; assay: MCF-7 cell proliferation, CTG reagent, 6-day treatment, single agents and combination (CompuSyn synergy analysis); format: cell-based
Protocol: The effect of 6-day compound treatment on cell proliferation was measured using CTG reagent.

`CC1(C)CCC(CN2CCN(c3ccc(C(=O)NS(=O)(=O)c4ccc(NCC5CCOCC5)c([N+](=O)[O-])c4)c(Oc4cnc5[nH]ccc5c4)c3)CC2)=C(c2ccc(Cl)cc2)C1` [Venetoclax, venetoclax] was tested, and the inhibition at 0.004572 µM ([1]; Homo sapiens, Z-138, Venetoclax 0.004572 μM, Day-3) was 7.4%, the inhibition at 0.013717 µM ([1]; Homo sapiens, Z-138, Venetoclax 0.013717 μM, Day-3) was 18.9% and the inhibition at 0.041152 µM ([1]; Homo sapiens, Z-138, Venetoclax 0.041152 μM, Day-3) was 35.6%. For the same molecule, the inhibition at 0.123457 µM ([1]; Homo sapiens, Z-138, Venetoclax 0.123457 μM, Day-3) was 49.8%, the inhibition at 0.37037 µM ([1]; Homo sapiens, Z-138, Venetoclax 0.370370 μM, Day-3) was 63.8% and the inhibition at 1.11111 µM ([1]; Homo sapiens, Z-138, Venetoclax 1.111111 μM, Day-3) was 75.6%. The inhibition at 3.33333 µM ([1]; Homo sapiens, Z-138, Venetoclax 3.333333 μM, Day-3) was 90.5%, the inhibition at 10 µM ([1]; Homo sapiens, Z-138, Venetoclax 10.000000 μM, Day-3) was 99.7% and the inhibition at 30 µM ([1]; Homo sapiens, Z-138, Venetoclax 30.000000 μM, Day-3) was 99.9%. The “% Inhibition in proliferation” value ([1]; Venetoclax 0.000006 μM + Compound-44A 0.0 μM) was −3.0%, the “% Inhibition of proliferation” value ([1]; Venetoclax 0.000006 μM, Day-3) was 1.6% and −2.7% and −8.2% and the “% Inhibition in proliferation” value ([1]; Venetoclax 0.000019 μM + Compound-44A 0.0 μM) was −10.0%. For the same molecule, the “% Inhibition in proliferation” value ([1]; Venetoclax 0.000169 μM + Compound-44A 0.0 μM) was −9.0%, the “% Inhibition in proliferation” value ([1]; Venetoclax 0.000508 μM + Compound-44A 0.0 μM) was −10.0% and the “% Inhibition in proliferation” value ([1]; Venetoclax 0.001524 μM + Compound-44A 0.0 μM) was −0.2%. For the same molecule, the “% Inhibition in proliferation” value ([1]; Venetoclax 0.004572 μM + Compound-44A 0.0 μM) was 8.0%, the “% Inhibition of proliferation” value ([1]; Venetoclax 0.004572 μM, Day-3) was 6.3% and 11.2% and the “% Inhibition in proliferation” value ([1]; Venetoclax 0.013717 μM + Compound-44A 0.0 μM) was 19.0%. For the same molecule, the “% Inhibition of proliferation” value ([1]; Venetoclax 0.013717 μM, Day-3) was 19.7%, the “% Inhibition in proliferation” value ([1]; Venetoclax 0.041152 μM + Compound-44A 0.0 μM) was 33.0% and the “% Inhibition of proliferation” value ([1]; Venetoclax 0.041152 μM, Day-3) was 29.6% and 34.7%. The “% Inhibition in proliferation” value ([1]; Venetoclax 0.123457 μM + Compound-44A 0.0 μM) was 53.0%, the “% Inhibition of proliferation” value ([1]; Venetoclax 0.123457 μM, Day-3) was 53.8% and 55.1% and the “% Inhibition in proliferation” value ([1]; Venetoclax 0.370370 μM + Compound-44A 0.0 μM) was 65.0%. The “% Inhibition of proliferation” value ([1]; Venetoclax 0.370370 μM, Day-3) was 65.2% and 66.6%, the “% Inhibition in proliferation” value ([1]; Venetoclax 1.111111 μM + Compound-44A 0.0 μM) was 76.0% and the “% Inhibition of proliferation” value ([1]; Venetoclax 1.111111 μM, Day-3) was 73.5% and 78.1%. For the same molecule, the “% Inhibition in proliferation” value ([1]; Venetoclax 3.333333 μM + Compound-44A 0.0 μM) was 92.0%, the “% Inhibition of proliferation” value ([1]; Venetoclax 3.333333 μM, Day-3) was 91.6% and 92.6% and the “% Inhibition in proliferation” value ([1]; Venetoclax 10.0 μM + Compound-44A 0.0 μM) was 100.0%. The “% Inhibition of proliferation” value ([1]; Venetoclax 10.000000 μM, Day-3) was 99.8% and 100%, the “% Inhibition in proliferation” value ([1]; Venetoclax 30.0 μM + Compound-44A 0.0 μM) was 100.0% and the “% Inhibition of proliferation” value ([1]; Venetoclax 30.000000 μM, Day-3) was 100.1%. The “% Inhibition in proliferation” value ([1]; Venetoclax […] + Compound-44A 0.0 μM) was −10.0%.

`C[C@]12CC[C@@H]3c4ccc(O)cc4C[C@@H](CCCCCCCCC[S+]([O-])CCCC(F)(F)C(F)(F)F)[C@H]3[C@@H]1CC[C@@H]2O` (stereo partly shown) [Fulvestrant, fulvestrant] was tested, and the “% Inhibition in proliferation” value ([2]; Fulvestrant 0.000000164 nM + Compound-44A 0.00 nM, 6 days) was 2.8%, the “% Inhibition of proliferation” value ([2]; Fulvestrant 0.000000164 nM, Day-6) was 0.6% and 2.7% and 4.9% and the “% Inhibition in proliferation” value ([2]; Fulvestrant 0.000000819 nM + Compound-44A 0.00 nM, 6 days) was 10.4%. The “% Inhibition in proliferation” value ([2]; Fulvestrant 0.000004096 nM + Compound-44A 0.00 nM, 6 days) was 5.0%, the “% Inhibition of proliferation” value ([2]; Fulvestrant 0.000004096 nM, Day-6) was 6.6% and 7.7% and 0.7% and the “% Inhibition in proliferation” value ([2]; Fulvestrant 0.00002048 nM + Compound-44A 0.00 nM, 6 days) was 7.1%. For the same molecule, the “% Inhibition of proliferation” value ([2]; Fulvestrant 0.00002048 nM, Day-6) was 7.2% and 5.9%, the “% Inhibition in proliferation” value ([2]; Fulvestrant 0.0001024 nM + Compound-44A 0.00 nM, 6 days) was 0.9% and the “% Inhibition of proliferation” value ([2]; Fulvestrant 0.0001024 nM, Day-6) was 4.2% and −1.2% and −0.1%. The “% Inhibition in proliferation” value ([2]; Fulvestrant 0.000512 nM + Compound-44A 0.00 nM, 6 days) was 7.5%, the “% Inhibition of proliferation” value ([2]; Fulvestrant 0.000512 nM, Day-6) was 3.2% and 7.4% and 11.8% and the “% Inhibition in proliferation” value ([2]; Fulvestrant 0.00256 nM + Compound-44A 0.00 nM, 6 days) was 3.4%. The “% Inhibition in proliferation” value ([2]; Fulvestrant 0.0128 nM + Compound-44A 0.00 nM, 6 days) was 1.5%, the “% Inhibition in proliferation” value ([2]; Fulvestrant 0.064 nM + Compound-44A 0.00 nM, 6 days) was −1.2% and the “% Inhibition of proliferation” value ([2]; Fulvestrant 0.064 nM, Day-6) was 3.9% and −2.5% and −5%. For the same molecule, the “% Inhibition in proliferation” value ([2]; Fulvestrant 0.32 nM + Compound-44A 0.00 nM, 6 days) was 24.2%, the “% Inhibition of proliferation” value ([2]; Fulvestrant 0.32 nM, Day-6) was 27.7% and 23.3% and the “% Inhibition in proliferation” value ([2]; Fulvestrant 1.6 nM + Compound-44A 0.00 nM, 6 days) was 79.8%. For the same molecule, the “% Inhibition of proliferation” value ([2]; Fulvestrant 1.6 nM, Day-6) was 78.6% and 80%, the “% Inhibition in proliferation” value ([2]; Fulvestrant 8 nM + Compound-44A 0.00 nM, 6 days) was 87.5% and the “% Inhibition of proliferation” value ([2]; Fulvestrant 8 nM, Day-6) was 88.4% and 86.3%. For the same molecule, the “% Inhibition in proliferation” value ([2]; Fulvestrant 40 nM + Compound-44A 0.00 nM, 6 days) was 86.9%, the “% Inhibition of proliferation” value ([2]; Fulvestrant 40 nM, Day-6) was 86% and the “% Inhibition in proliferation” value ([2]; Fulvestrant 1000 nM + Compound-44A 0.00 nM, 6 days) was 88.7%. The “% Inhibition of proliferation” value ([2]; Fulvestrant 1000 nM, Day-6) was 90.2%, the “% Inhibition in proliferation” value ([2]; Fulvestrant 3000 nM + Compound-44A 0.00 nM, 6 days) was 90.0% and the “% Inhibition of proliferation” value ([2]; Fulvestrant 3000 nM, Day-6) was 90.6% and 89.5%. For the same molecule, the “% Inhibition in proliferation” value ([2]; Fulvestrant 10000 nM + Compound-44A 0.00 nM, 6 days) was 95.0%, the “% Inhibition of proliferation” value ([2]; Fulvestrant 10000 nM, Day-6) was 95.7% and 95.1% and the inhibition at 20.48 fM ([2]; Homo sapiens, MCF7, Fulvestrant 0.00002048 nM, Day-6) was 8.1%. It also gave an inhibition at 0.00032 µM ([2]; Homo sapiens, MCF7, Fulvestrant 0.32 nM, Day-6) of 21.6%, an inhibition at 0.0016 µM ([2]; Homo sapiens, MCF7, Fulvestrant 1.6 nM, Day-6) of 80.9% and an inhibition at 0.008 µM ([2]; Homo sapiens, MCF7, Fulvestrant 8 nM, Day-6) of 87.8%. For the same molecule, the inhibition at 0.04 µM ([2]; Homo sapiens, MCF7, Fulvestrant 40 nM, Day-6) was 85.9%, the inhibition at 0.2 µM ([2]; Homo sapiens, MCF7, Fulvestrant 200 nM, Day-6) was 85.8% and the inhibition at 1 µM ([2]; Homo sapiens, MCF7, Fulvestrant 1000 nM, Day-6) was 88.8%. The inhibition at 3 µM ([2]; Homo sapiens, MCF7, Fulvestrant 3000 nM, Day-6) was 89.9%, the inhibition at 10 µM ([2]; Homo sapiens, MCF7, Fulvestrant 10000 nM, Day-6) was 94.3% and the “inhibition of proliferation in MCF-7 cells” value ([2]; single agent, serial dilutions, 6 days) was “dose dependent inhibition of proliferation”.

Source: US20240277722A1, “CANCER THERAPY USING A COMBINATION OF CDK7 INHIBITOR WITH AN ANTI-CANCER AGENT” (Aurigene Oncology Limited, priority 2021, published 2024)
